8 compounds from ChEMBL document CHEMBL4002554, “Terpenoids from Melampodium perfoliatum” (2016) can be followed below.

Where only a bound is given, the exact number is not on record here.

The subject of the first assay is Mus musculus. Kind of assay: Anti-inflammatory activity in TPA-induced CD1 mouse ear acute inflammation model assessed as reduction in TPA-induced ear edema at 1 mg/ear administered topically 10 mins prior to TPA challenge measured after 4 hrs relative to control. In kind it is functional.
In the case of `C=C1C(=O)O[C@H]2[C@H]1[C@H](OC(=O)[C@]1(C)O[C@@H]1C)[C@@H](OC(=O)[C@]1(C)O[C@@H]1C)/C(C(=O)OC)=C\CC[C@@]1(C)O[C@H]21`, the “inhibition (INH)” value was below 50%.

Consider `C=C1C(=O)O[C@@H]2/C=C(\C)[C@@H]3O[C@@H]3/C=C(/C(=O)OC)[C@H](OC(=O)[C@]3(C)O[C@@H]3C)[C@@H](OC(=O)[C@]3(C)O[C@@H]3C)[C@@H]12`, for which the “inhibition (INH)” value is given as below 50%.

For the compound `CC1(C)[C@H]2CC[C@@]34C[C@@H](CC[C@H]3[C@]2(C)CC[C@@H]1O)[C@@](O)(CO)C4`, the “inhibition (INH)” value was below 50%.

In a further assay the test system is Mus musculus. Kind of assay: Anti-inflammatory activity in TPA-induced CD1 mouse ear acute inflammation model assessed as reduction in TPA-induced ear edema administered topically 10 mins prior to TPA challenge measured after 4 hrs. In kind it is functional.
For `C=C1C(=O)O[C@@H]2/C=C(\C)[C@@H]3O[C@@H]3/C=C(/C(=O)OC)[C@H](O)[C@@H](OC(=O)[C@]3(C)O[C@@H]3C)[C@@H]12` [MELAMPODIN A], the ID50 is 1.14 µmol and the inhibition entry is “Dose-dependent effect”.

On to `COc1ccc2c(c1)c(CC(=O)O)c(C)n2C(=O)c1ccc(Cl)cc1` [INDOMETHACIN], for which the ID50 is 0.24 µmol.

`C=C1C(=O)O[C@@H]2/C=C(\C)CC/C=C(/C(=O)OC)[C@H](O)[C@@H](OC(=O)[C@]3(C)O[C@@H]3C)[C@@H]12`: the ID50 turned out to be 1.15 µmol and the inhibition result was “Dose-dependent effect”.

Regarding `CC(C)=CC(=O)C[C@@]12O[C@@H]1CC[C@]1(C)O[C@](C)(C(O)CO)CC[C@@H]1OC2=O` (some centres not stated), the ID50 came out at 1.49 µmol and the inhibition result was “Dose-dependent effect”.

Turning to `C=C1C(=O)O[C@@H]2/C=C(\C)CC/C=C(/C(=O)OC)[C@H](O)[C@@H](OC(=O)/C(C)=C\C)[C@@H]12`, the ID50 was found to be 0.56 µmol and the inhibition result is “Dose-dependent effect”.
